Reference: patent US8163805B2, “Small molecule antagonists of Bcl-2 family proteins” (The Regents of the University of Michigan, priority 2001, dated 2012)
Read-outs that look alike come from different tables or passages of the source.

What was measured:
Bcl-XL [1] = molecular target: T1, Bcl-XL (Homo sapiens, UniProt Q07817, DEL45-84); test: FP binding assay, Flu-Bak-BH3 16-mer tracer and His-fused Bcl-XL; details: FIG. 3, 6A, 6B
T1 construct: His-tag (N); made in house

MDA-MB-231 cells = test: 5 day MTT cell growth assay, MDA-MB-231; assay type: cell-based, human; details: Homo sapiens, MDA-MB-231, 120 h, read-out: IC50, inhibition of MDA-MB-231 cell growth
Procedure: For example, the ability of gossypol compounds to inhibit MDA-MB-231 cell growth was tested in a 5 day MTT assay.
Cells were seeded in 24 or 96-well-plates and gossypol compounds were prepared at 2-10 fold dilutions in suitable medium. Inhibition of cell viability was determined by treating the cells with the gossypol compounds for 24 hrs. […] Inhibition of cell growth was determined by treating cells with gossypol compounds for 3-6 days. […] In some embodiments, MTT assays are used to determine cell inhibition.
Absorbance at 540 nm is used to measure the amount of formazan product.

[2] = tested on: MDA-MB-231 breast cancer cells; test: Annexin-V flow cytometry apoptosis, MDA-MB-231; assay type: cell-based, human; details: 24 hours
Procedure: Further tests using Annexin-V flow cytometry (FACS) assays were conducted to more quantitatively assess the ability of gossypol to induce apoptosis in MDA-MB-231 breast cancer cells. […] It was observed that 5.0 μM of gossypol induced 59% of the MDA-MB-231 cells to undergo apoptosis. While the present invention is not limited to a particular mechanism(s), it is contemplated that induction of apoptosis by gossypol is dose-dependent. At administrations of 10.0 and 20.0 μM, respectively, gossypol induced 74% and 96% of cancer cells, again respectively, to undergo apoptosis. MDA-MB-231 cells overexpress Bcl-2 and Bcl-XL.
In still further embodiments, the present invention used cell level detection of apoptotic events by flow cytometry. Cells that had undergone apoptotic events were detected by flow cytometry using a FACSCAN instrument (Becton Dickinson, Franklin Lakes, N.J.) with 488-nm laser line and analyzed using CELL QUEST software (Becton Dickinson, Franklin Lakes, N.J.). Phosphatidylserine exposed on the outside of the cells (one of the major characteristics of apoptosis) was determined by TACSTM Annexin V-FITC Kit (Trevigen, Gaithersburg, Md.). Annexin V-FITC fluorescence is detected in FL-1, and propidium iodide was detected in FL-2. (Hail Jr., and R. Lotan, R. Cancer Epidemiol. Biomarkers Prev., 9:1293-1301 (2000)).
Apoptosis was further detected and quantified using Annexin-V-fluorescence assays. […] Cells were collected and washed with PBS and stained with Annexin-V-Fluorescein and propidium iodide (PI) following standard protocols. Stained cells were analyzed with a flow cytometer (Becton Dickinson) using 488 nm excitation and a 515 nm bandpass filter for fluorenscein detection, and a >600 nm filter for PI detection.

[3] = tested on: androgen-independent prostate PC-3 xenograft; test: PC-3 xenograft, (−)-gossypol and radiation (Example 20); assay type: in vivo, nude mice; details: Table 15; mice treated with gossypol and/or radiation
Procedure: In this experiment, 60 male 5 to 6 week old NCI athymic NCr-nu/nu nude mice were inoculated in each flank with an injection of about 5×10^6 PC-3 cells. The best 40 xenograft recipients were used. Tumors averaged about 70 mm^3. (−)-Gossypol compounds were first dissolved in ethanol and diluted with sterile water within 5 min to a final ethanol concentration of 10% prior to each administration. Irradiated test animals were restrained, placed under the X-ray head, and covered with lead shields to ensure that the tumor area was exposed to radiation. All oral administrations of (−)-gossypol and 10% alcohol were given by gavage.
The 40 best xenograft mice were divided into experimental groups as follows: radiation only (Groups 1 and 2), 2 Gy administered 5 times/week for 3 weeks, and daily oral administration of 10% alcohol (as vehicle control); radiation plus gossypol (Groups 3 and 4), 2 Gy administered 5 times a week for 3 weeks, and 10 mg/kg of (−)-gossypol administered orally 5 times/week for 4 weeks (8 mice each Group); gossypol only (Groups 5 and 6), 10 mg/kg (−)-gossypol administered orally every day for 4 weeks (8 mice each Group); vehicle control (Groups 7 and 8), daily oral administration of 10% alcohol (8 mice each Group as vehicle control); large tumor animals (combination of Groups 9-12), tumors allowed to reach 500 mm^3.
Other remaining tumors in this group appear pale yellowish and soft as compared with that in control group with hard solid and reddish appearance, indicating tumor blood supply was inhibited.

[4] = tested on: human breast cancer xenograft MDA-MB-231; details: for inhibition of tumor growth: three weeks, day 29
Procedure: The potential of gossypol compounds as anticancer therapeutics was further evaluated in MDA-231 xenograft mice. […] A control group of five mice received no gossypol. In the treated mice, gossypol was administered daily in two different oral doses, a 30 and a 90 mg/kg dose, for three weeks.
A group of 10 mice received an orally administered daily dose of 30 mg/kg gossypol starting at day 7 and lasting for 4 weeks. […] Each experimental group had 10 animals.
As a positive control, TAXOTERE was used at a dose of 7.5 mg/kg. Control group mice received either no treatment or vehicle alone. To achieve statistic significance, a minimum of 10 mice per group was used in the combination regimes.
For all tests, mice were randomized and then injected in the fat pad with 1-5×10^6 cells prepared in serum-free medium. The animals were measured and weighed twice each week during the treatment period, followed by twice a week measurements for an additional 4-6 weeks. A gross visual necropsy of each animal was performed at death or terminal sacrifice.

[5] = tested on: human breast cancer MDA-MB-231 (2LMP) xenograft
PC-3 xenograft = details: Table 14; mice treated with gossypol and/or radiation
[6] = tested on: androgen independent prostate cancer PC-3 xenograft; test: PC-3 xenograft, (−)-gossypol alone and with docetaxel (Example 22); details: for weight loss: mice treated with gossypol
[7] = tested on: A549 non-small cell lung carcinoma xenograft; test: A549 non-small cell lung carcinoma xenograft, (−)-gossypol with paclitaxel; details: Table 13; mice treated with gossypol and/or Paclitaxel
Bcl-2 = molecular target: T2, Bcl-2 (Homo sapiens, UniProt P10415); test: FP binding assay, Flu-Bad-25 peptide and GST-fusion Bcl-2 (FIG. 4, 45)
T2 construct: purchased Santa Cruz Biotechnology
T2 sequence (P10415 1-205 limits assumed): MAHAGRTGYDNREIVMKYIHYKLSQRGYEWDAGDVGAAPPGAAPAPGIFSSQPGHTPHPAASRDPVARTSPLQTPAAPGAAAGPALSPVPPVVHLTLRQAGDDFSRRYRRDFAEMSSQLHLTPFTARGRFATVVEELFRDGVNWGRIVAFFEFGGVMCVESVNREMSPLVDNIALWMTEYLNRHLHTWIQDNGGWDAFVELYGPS

Bcl-XL [8] = molecular target: T1, Bcl-XL; test: FP binding assay, Flu-Bid 21-residue peptide and Bcl-XL (FIG. 5, 46)
Bcl-XL [9] = molecular target: T1, Bcl-XL; test: 15N HSQC NMR binding to Bcl-XL
[10] = tested on: MCF-7 breast cancer cell line; test: Growth inhibition with TAXOL in fixed ratio, MCF-7; assay type: cell-based, human; details: combinations in a fixed ratio to TAXOL
[11] = Elimination half-life in humans; assay type: in vivo
Description: In some embodiments, the present invention contemplates that the longer residency of the (+)-gossypol enantiomer is potentially beneficial in certain prolonged gossypol treatments methods. Therefore, in some embodiments, the (+)-gossypol enantiomer is potentially more toxic to cells. […]

[12] = Table 8, docetaxel 7.5 mg/kg i.v. q week for 3 weeks, alone

T1 sequence (Q07817 with tags, fused parts or gaps DEL45-84 limits assumed): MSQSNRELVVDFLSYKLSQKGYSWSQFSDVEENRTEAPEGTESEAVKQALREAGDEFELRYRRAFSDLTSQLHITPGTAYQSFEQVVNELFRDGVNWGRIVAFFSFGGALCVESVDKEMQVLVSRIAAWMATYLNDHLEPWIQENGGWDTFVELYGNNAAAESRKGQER

CC1=C(C2=C(C)C(=O)c3c(c(C=O)c(O)c(O)c3C(C)C)C2=O)C(=O)c2c(C=O)c(O)c(O)c(C(C)C)c2C1=O (racemic) [gossypolone]
inhibition of binding between Bak BH3 peptide and Bcl-XL (Bcl-XL [1]): competitive inhibition of Bak BH3 peptide binding to Bcl-XL protein

CCN=Cc1c(O)c(O)c(C(C)C)c2cc(C)c(-c3c(C)cc4c(C(C)C)c(O)c(O)c(C=NCC)c4c3O)c(O)c12 [(−)-gossypol ethyl Schiff's base]
inhibition of binding between Bak BH3 peptide and Bcl-XL (Bcl-XL [1]): time-dependent inhibition

Cc1cc2c(C(C)C)c(O)c(O)c(C=O)c2c(O)c1-c1c(C)cc2c(C(C)C)c(O)c(O)c(C=O)c2c1O (racemic) [gossypol]
IC50 (MDA-MB-231 cells): 2000 nM
cells induced to undergo apoptosis ([2]; 5.0 μM): 59%
cells induced to undergo apoptosis ([2]; 10.0 μM): 74%
cells induced to undergo apoptosis ([2]; 20.0 μM): 96%
weight loss [3]: There was no significant weight loss
inhibition of tumor growth ([4]; 30 mg/kg oral daily): more than 70%
inhibition of tumor growth ([4]; 90 mg/kg oral daily): more than 70%
weight loss or deaths ([4]; 30 and 90 mg/kg oral daily): No weight loss or deaths
weight loss or death ([5]; Table 8, mice treated with gossypol): There was no weight loss or death in
weight loss (PC-3 xenograft): There was no significant weight loss
tumor growth inhibition on day 42 ([6]; Table 9, PC-3 flank xenografts (~100 mm^3 at start), NCr-nu nude mouse, 15 mg/kg daily p.o., alone): (15.6% on day 42). The (−)-gossypol
weight loss ([6]; Table 9): There was no weight loss in mice
tumor growth inhibition on day 56 compared to vehicle controls ([6]; Table 10, PC-3 flank xenografts (~120 mm^3 at start), NCr-nu nude mouse, daily p.o. for 28 days, alone (racemic 15 mg/kg)): (39% on day 56, p = 0.145) compared
weight loss ([6]; Table 10): There was no weight loss in mice
weight loss [7]: There was no weight loss in mice

CC(=O)O[C@@]12CO[C@@H]1C[C@H](O)[C@@]1(C)C(=O)[C@H](O)C3=C(C)[C@@H](OC(=O)[C@H](O)[C@@H](NC(=O)OC(C)(C)C)c4ccccc4)C[C@@](O)([C@@H](OC(=O)c4ccccc4)[C@H]21)C3(C)C [Docetaxel, docetaxel, reference compound]
tumor growth inhibition [5, 12]: achieved about 70% tumor growth
tumors grew back, time after treatment stopped [5, 12]: back 2-3 weeks after treatment
tumor growth in second round of treatment ([5]; second round from day 45, tumors about 2,000 mm^3): continued to grow

Cc1cc2c(C(C)C)c(O)c(O)c(C=O)c2c(O)c1-c1c(C)cc2c(C(C)C)c(O)c(O)c(C=O)c2c1O [(+)-gossypol]
inhibition of binding between Bid BH3 peptide and Bcl-2 (Bcl-2; FIG. 4): directly inhibit binding between Bid BH3 peptide and Bcl-2
inhibition of binding between Bad BH3 peptide and Bcl-XL (Bcl-XL [8]): directly inhibit binding between Bad BH3 peptide and Bcl-XL
binding to Bcl-XL by NMR (Bcl-XL [9]): bind to the BH3 binding groove in Bcl-XL
IC50 [10]: 22900 nM
T1/2 of elimination relative to (−)-gossypol [11]: 29 times

CSCC[C@H](NC(=O)[C@H](CCCNC(=N)N)NC(=O)[C@H](CCCNC(=N)N)NC(=O)[C@H](CC(C)C)NC(=O)[C@H](CCC(=O)O)NC(=O)[C@H](CCCNC(=N)N)NC(=O)CNC(=O)[C@H](Cc1ccc(O)cc1)NC(=O)[C@H](CCCNC(=N)N)NC(=O)[C@H](CCC(N)=O)NC(=O)[C@H](C)NC(=O)[C@H](C)NC(=O)[C@H](Cc1c[nH]c2ccccc12)NC(=O)[C@H](CC(C)C)NC(=O)[C@H](CC(N)=O)NC(=O)c1ccc2c(c1)C1(OC2=O)c2ccc(O)cc2Oc2cc(O)ccc21)C(=O)N[C@@H](CO)C(=O)N[C@@H](CC(=O)O)C(=O)N[C@@H](CCC(=O)O)C(=O)N[C@@H](Cc1ccccc1)C(=O)N[C@H](C(=O)N[C@@H](CC(=O)O)C(=O)N[C@@H](CO)C(=O)N[C@@H](Cc1ccccc1)C(=O)N[C@@H](CCCCN)C(=O)N[C@@H](CCCCN)C(=O)O)C(C)C [Bad 25-mer BH3 peptide, reference compound]
Kd (Bcl-2; FIG. 26): 6.9 nM
